# Test results reported in patent publication US12398141B2 (SHANGHAI SYNERGY PHARMACEUTICAL SCIENCES CO., LTD, priority 2019, dated 2025).
# Legend:
# [1] = tested on: Blast T cell; assay: Cell proliferation test of IL-2 stimulated Blast T cell; type: cell-based; conditions: Homo sapiens; IL-2 stimulated Blast T cell proliferation, 72 hours
# [2] = tested on: TF-1 cell; assay: TF-1 cell proliferation test; type: cell-based; conditions: Homo sapiens, 72 h
# [3] = tested on: male ICR mice; assay: Carrageenan-induced paw swelling in mice; type: in vivo; conditions: 10 mg/kg intragastric; for Paw swelling_0.5 h (%): 0.5 h; for Paw swelling rate_1 h (%): 1 h; for Paw swelling rate_2 h (%): 2 h
# Procedure, shortened: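 Compounds in 4% Tween 80/0.5% HPMC given intragastrically at 10 mg/kg (10 ml/kg); 0.5 h later 20 μL 1% carrageenan injected into the plantar. Paw volume measured before and at 0.5, 1 and 2 h; swelling rate expressed relative to baseline paw volume.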
# [4] = Pharmacokinetic test after intragastric administration; type: in vivo; conditions: Sprague-Dawley, mouse, plasma, po, SD mice, 5 mg/kg intragastric; for AUC(0-t): read-out: Area under the curve (AUC0-24, ng/ml · h); for Cmax: read-out: Plasma concentration (Cmax, ng/ml); for half-life: read-out: half life (T1/2, h) (converted)
# Protocol: Drug concentrations of compounds H01, H07, H11, H12, H14, H15, H22, H25, H29, H30, H33, H39 and H44 intragastrically administrated in plasma by using LC/MS/MS method at various time points were determined by using Sprague-Dawley (SD) […], aged 7-8 weeks and weighing […] as test animals. Pharmacokinetic behavior of the compounds of the invention in […] was studied and its pharmacokinetic characteristics were evaluated.
# A certain amount of compounds was taken and dissolved in 50% PEG400/water to prepare a uniform solution.
# Mice were administered intragastrically with the above compounds with a dosage of 5 mg/kg. Blood (0.2 ml) was taken from orbits before administration and 0.083 h, 0.25 h, 0.5 h, 1.0 h, 2.0 h, 4.0 h, 6.0 h, 8.0 h, 12.0 h and 24.0 h after administration. The blood was placed in anticoagulant tubes containing dipotassium ethylene glycol diethyl ether diamine tetraacetic acid, centrifugated at 6000 rpm at 4° C. for 10 minutes to separate plasma and saved at −80° C.
# 50 μL plasma at various time was taken and 150 μL acetonitrile solution containing internal standard tolbutamide (Sigma, USA) was added, mixed and stirred for 5 minutes. After centrifugation for 5 minutes at 12,000 rpm, 100 μL supernatant was taken, mixed with 200 μL water, following by sample injection and analysis.
# Liquid chromatogram system was LC-20AD UFLC High Performance Liquid Chromatography system. Mass spectrum system was AB Sciex API4000 triple quadrupole mass spectrometer equipped with Electron Spray Ionization (ESI) (Applied Biosystems, Canada). A software for controlling liquid chromatography-mass spectrometry and quantitative analysis was Anna Rust 1.6 (Applied Biosystems, Canada). Pharmacokinetic parameters were analyzed by WinNonlin (version 5.2, Pharsight, Mountain View, […]) non-compartment model.
# The test compound was dissolved in dimethyl sulfoxide to prepare a stock solution with a concentration of 1 mg/mL. The solution was diluted with 50% acetonitrile to obtain a series of standard working solutions with concentrations of 10 μg/mL, 3 μg/mL, 1 μg/mL, 0.3 μg/mL, 0.1 μg/mL, 0.03 μg/mL and 0.01 μg/mL, and a series of standard quality control solutions with concentrations of 8 μg/mL, 0.5 μg/mL, 0.03 μg/mL. 5 μL standard solution was mixed with 45 μL blank plasma substrate uniformly to obtain standard solutions of each concentration of a standard curve (1000 ng/mL, 500 ng/mL, 200 ng/mL, 100 ng/mL, 10 ng/mL, 5 ng/mL, 2 and 1 ng/mL) and quality control solutions (plasma samples: 800 ng/mL, 50 and 3 ng/mL).
# Internal standard tolbutamide solid powder was dissolved in dimethyl sulfoxide to prepare a 1 mg/mL stock solution. The stock solution was diluted with 100% acetonitrile to obtain 200 ng/mL solution as a protein precipitation solution.
AUC(0-t) [4] [ng·h/mL],Cmax [4] [ng/mL],half-life [4] [h],SMILES,IC50 [1] [µM],IC50 [2] [µM],Paw swelling_0.5 h (%) [3] [%],Paw swelling rate_1 h (%) [3] [%],Paw swelling rate_2 h (%) [3] [%]
1680 ± 120,619 ± 39,4.17 ± 0.45,"CN(c1c(C#N)cnc2[nH]ccc12)[C@H]1C[C@@H]2CN(C(=O)Nc3nc(OCC(C)(C)N)ns3)C[C@@H]2C1 [Compound H44, (3aR,5s,6aS)-5-((5-cyano-1H-pyrrolo[2,3-b]pyridin-4-yl)(methyl)amino)-N-(3-(2-amino-2-methyl-propoxy)-1,2,4-thiadiazole-5-yl)hexahydrocyclopentadiene[c]pyrrole-2(1H)-carboxamide]",0.014,0.73,31.03 ± 2.43,42.65 ± 2.21,41.56 ± 3.32
1530 ± 176,522 ± 23,4.43 ± 0.32,"COc1nsc(NC(=O)N[C@H]2C[C@@H](N(C)c3c(C#N)cnc4[nH]ccc34)C2)n1 [Compound H29, (cis)-1-(3-((5-cyano-1H-pyrrolo[2,3-b]pyridin-4-yl)(methyl)amino)cyclobutyl)-3-(3-methoxy-1,2,4-thiadiazole-5-yl)urea]",0.016,0.87,33.03 ± 4.23,41.65 ± 2.21,40.10 ± 4.32
1520 ± 241,518 ± 24,5.11 ± 0.16,"CN(c1c(C#N)cnc2[nH]ccc12)[C@H]1C[C@@H](NS(=O)(=O)CCC(F)(F)F)C1 [Compound H15, (cis)-4-{[3-(3,3,3-trifluoropropanesulfonamide)-cyclobutyl-1-yl]-methyl-amino}-1H-pyrrolo[2,3-b]pyridin-5-carbonitrile]",0.014,0.073,36.02 ± 1.37,43.33 ± 2.30,43.24 ± 4.36
